Measurements as given in ChEMBL document CHEMBL3991601, “The target landscape of clinical kinase drugs” (Science, 2017).
Activity calls are given as the source filed them. Cut-off read from the data, not from the text of the source, for most assays here: actives have a measured Kd and inactives only a lower limit.

Legend:
[1] = target: T1, General transcription and DNA repair factor IIH helicase subunit XPD (Homo sapiens, UniProt P18074); details: read-out: Kd apparent; k-562, colo 205, sk-n-be(2) and mv-4-11
T1 sequence (P18074 whole entry): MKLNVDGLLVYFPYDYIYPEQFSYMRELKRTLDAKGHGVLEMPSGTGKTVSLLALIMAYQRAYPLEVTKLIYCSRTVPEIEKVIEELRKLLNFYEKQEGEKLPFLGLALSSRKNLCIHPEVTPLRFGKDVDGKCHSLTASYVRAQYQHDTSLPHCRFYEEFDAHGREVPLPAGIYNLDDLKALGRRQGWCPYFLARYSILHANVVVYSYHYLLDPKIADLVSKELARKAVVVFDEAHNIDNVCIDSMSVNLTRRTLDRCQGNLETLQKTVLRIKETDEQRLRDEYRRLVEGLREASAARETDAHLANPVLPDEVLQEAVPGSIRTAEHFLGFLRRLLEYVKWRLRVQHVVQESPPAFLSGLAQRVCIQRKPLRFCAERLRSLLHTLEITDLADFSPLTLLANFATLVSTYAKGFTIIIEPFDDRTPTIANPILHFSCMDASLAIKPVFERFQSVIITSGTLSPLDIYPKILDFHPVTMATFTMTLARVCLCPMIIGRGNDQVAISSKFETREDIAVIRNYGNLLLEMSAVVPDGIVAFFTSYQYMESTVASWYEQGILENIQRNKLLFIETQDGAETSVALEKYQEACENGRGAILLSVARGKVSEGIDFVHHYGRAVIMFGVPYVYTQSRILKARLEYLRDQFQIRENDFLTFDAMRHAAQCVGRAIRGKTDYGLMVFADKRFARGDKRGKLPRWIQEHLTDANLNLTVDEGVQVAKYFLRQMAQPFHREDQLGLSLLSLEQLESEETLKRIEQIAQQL

[2] = target: Dual specificity tyrosine-phosphorylation-regulated kinase 1A (Homo sapiens, UniProt Q13627)
[3] = target: Interleukin-1 receptor-associated kinase 1 (Homo sapiens, UniProt P51617)
[4] = target: T2, RNA cytidine acetyltransferase (Homo sapiens, UniProt Q9H0A0)
T2 sequence (Q9H0A0 whole entry): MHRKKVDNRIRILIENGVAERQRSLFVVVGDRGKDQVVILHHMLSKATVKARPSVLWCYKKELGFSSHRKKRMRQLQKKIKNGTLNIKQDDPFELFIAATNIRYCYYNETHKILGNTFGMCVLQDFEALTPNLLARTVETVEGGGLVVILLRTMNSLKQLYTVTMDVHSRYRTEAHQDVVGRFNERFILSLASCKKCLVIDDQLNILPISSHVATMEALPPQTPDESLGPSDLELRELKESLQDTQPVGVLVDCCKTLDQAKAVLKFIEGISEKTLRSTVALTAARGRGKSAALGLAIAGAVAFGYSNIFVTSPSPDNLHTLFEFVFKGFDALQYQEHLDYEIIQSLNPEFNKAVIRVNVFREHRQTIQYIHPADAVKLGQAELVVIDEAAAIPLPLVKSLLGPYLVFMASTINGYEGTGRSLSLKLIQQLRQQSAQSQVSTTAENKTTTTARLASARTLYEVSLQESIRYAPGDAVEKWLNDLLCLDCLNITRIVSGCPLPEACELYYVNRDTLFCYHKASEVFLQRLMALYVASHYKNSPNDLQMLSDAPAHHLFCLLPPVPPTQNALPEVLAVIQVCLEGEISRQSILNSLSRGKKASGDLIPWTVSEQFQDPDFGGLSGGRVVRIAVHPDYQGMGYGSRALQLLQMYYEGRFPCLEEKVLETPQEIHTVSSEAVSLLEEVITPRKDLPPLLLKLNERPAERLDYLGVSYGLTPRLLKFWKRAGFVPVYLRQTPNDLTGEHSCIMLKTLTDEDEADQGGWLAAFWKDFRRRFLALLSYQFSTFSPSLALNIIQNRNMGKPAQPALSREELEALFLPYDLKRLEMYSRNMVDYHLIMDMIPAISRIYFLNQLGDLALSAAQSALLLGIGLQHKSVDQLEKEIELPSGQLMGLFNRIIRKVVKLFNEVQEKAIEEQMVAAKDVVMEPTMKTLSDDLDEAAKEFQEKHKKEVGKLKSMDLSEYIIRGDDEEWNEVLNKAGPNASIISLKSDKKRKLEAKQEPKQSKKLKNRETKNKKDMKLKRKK

[5] = target: Ribosomal protein S6 kinase alpha-1 (Homo sapiens, UniProt Q15418)
[6] = target: Serine/threonine-protein kinase N1 (Homo sapiens, UniProt Q16512)
[7] = target: Casein kinase I isoform delta (Homo sapiens, UniProt P48730)
[8] = target: Rho-associated protein kinase 2 (Homo sapiens, UniProt O75116)
[9] = target: T3, Glycogen phosphorylase, brain form (Homo sapiens, UniProt P11216)
T3 sequence (P11216 whole entry): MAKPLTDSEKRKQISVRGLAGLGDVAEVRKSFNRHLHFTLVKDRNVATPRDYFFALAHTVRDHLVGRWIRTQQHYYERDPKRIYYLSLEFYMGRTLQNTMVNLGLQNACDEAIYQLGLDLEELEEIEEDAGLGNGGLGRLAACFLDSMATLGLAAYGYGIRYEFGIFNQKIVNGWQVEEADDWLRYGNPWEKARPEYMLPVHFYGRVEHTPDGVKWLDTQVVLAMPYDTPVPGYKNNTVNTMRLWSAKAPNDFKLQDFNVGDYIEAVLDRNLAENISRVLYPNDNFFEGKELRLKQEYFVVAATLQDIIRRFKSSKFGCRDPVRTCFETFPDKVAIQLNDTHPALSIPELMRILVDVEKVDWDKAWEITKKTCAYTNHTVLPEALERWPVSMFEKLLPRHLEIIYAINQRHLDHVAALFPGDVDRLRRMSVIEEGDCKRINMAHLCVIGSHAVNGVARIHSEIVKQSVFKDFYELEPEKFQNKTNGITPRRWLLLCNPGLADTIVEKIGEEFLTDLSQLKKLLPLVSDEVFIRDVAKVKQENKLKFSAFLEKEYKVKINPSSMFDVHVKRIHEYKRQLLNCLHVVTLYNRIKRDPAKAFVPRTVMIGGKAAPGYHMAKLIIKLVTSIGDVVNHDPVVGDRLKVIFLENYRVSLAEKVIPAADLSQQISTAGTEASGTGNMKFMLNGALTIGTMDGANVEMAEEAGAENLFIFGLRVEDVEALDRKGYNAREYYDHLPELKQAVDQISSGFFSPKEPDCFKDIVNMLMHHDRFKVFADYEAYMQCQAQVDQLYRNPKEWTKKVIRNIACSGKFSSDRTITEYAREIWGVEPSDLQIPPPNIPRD

Measured: Kd
Note: in the data inactive means no Kd found up to 30 µM.

Chain of Rho-associated protein kinase 2 (O75116 whole entry): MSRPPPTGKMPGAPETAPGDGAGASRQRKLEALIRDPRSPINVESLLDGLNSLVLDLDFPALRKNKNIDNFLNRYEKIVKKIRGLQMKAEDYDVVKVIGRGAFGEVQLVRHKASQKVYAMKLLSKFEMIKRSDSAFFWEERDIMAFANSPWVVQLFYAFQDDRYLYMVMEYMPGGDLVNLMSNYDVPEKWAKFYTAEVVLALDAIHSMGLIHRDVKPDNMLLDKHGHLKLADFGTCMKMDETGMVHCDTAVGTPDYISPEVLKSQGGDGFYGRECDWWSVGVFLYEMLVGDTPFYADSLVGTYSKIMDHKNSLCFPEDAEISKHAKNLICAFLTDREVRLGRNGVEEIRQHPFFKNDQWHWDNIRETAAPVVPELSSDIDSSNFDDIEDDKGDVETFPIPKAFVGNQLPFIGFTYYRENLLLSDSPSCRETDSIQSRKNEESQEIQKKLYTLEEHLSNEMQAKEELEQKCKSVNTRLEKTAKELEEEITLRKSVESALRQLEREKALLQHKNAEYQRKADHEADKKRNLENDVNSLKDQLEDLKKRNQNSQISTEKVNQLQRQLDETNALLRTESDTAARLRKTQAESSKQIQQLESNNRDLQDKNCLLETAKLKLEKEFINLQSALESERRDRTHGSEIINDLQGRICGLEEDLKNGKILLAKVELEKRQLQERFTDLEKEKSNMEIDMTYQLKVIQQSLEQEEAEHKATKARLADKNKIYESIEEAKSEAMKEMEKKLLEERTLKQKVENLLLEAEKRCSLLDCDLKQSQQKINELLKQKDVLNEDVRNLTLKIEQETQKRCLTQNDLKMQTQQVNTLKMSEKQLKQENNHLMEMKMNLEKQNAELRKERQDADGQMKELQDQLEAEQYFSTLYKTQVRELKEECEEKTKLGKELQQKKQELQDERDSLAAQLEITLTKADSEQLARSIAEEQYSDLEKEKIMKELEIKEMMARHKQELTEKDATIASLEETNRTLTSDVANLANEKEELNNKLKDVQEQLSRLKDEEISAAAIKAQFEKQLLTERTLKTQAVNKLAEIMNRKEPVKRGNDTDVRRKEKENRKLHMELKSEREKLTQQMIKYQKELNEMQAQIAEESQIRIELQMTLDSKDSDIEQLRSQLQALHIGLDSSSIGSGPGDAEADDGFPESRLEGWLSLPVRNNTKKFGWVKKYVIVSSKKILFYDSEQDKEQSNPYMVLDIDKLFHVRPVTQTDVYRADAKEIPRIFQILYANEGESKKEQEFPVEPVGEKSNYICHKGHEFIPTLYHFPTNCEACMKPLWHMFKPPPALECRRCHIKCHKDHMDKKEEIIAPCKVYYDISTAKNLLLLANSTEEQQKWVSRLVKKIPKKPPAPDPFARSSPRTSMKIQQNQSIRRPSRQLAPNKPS
Chain of Casein kinase I isoform delta (P48730 whole entry, canonical isoform): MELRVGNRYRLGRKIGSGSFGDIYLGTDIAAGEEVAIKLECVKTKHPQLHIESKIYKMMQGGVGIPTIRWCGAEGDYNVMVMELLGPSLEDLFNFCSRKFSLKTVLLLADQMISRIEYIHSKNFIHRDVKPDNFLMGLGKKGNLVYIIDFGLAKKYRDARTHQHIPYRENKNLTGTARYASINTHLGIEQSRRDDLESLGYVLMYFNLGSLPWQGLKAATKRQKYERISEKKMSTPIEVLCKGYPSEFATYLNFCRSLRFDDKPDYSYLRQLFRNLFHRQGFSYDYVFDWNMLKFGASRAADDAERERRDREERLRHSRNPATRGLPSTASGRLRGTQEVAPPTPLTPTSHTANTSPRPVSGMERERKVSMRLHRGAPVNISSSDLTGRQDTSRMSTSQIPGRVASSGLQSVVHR
Chain of Serine/threonine-protein kinase N1 (Q16512 whole entry, canonical isoform): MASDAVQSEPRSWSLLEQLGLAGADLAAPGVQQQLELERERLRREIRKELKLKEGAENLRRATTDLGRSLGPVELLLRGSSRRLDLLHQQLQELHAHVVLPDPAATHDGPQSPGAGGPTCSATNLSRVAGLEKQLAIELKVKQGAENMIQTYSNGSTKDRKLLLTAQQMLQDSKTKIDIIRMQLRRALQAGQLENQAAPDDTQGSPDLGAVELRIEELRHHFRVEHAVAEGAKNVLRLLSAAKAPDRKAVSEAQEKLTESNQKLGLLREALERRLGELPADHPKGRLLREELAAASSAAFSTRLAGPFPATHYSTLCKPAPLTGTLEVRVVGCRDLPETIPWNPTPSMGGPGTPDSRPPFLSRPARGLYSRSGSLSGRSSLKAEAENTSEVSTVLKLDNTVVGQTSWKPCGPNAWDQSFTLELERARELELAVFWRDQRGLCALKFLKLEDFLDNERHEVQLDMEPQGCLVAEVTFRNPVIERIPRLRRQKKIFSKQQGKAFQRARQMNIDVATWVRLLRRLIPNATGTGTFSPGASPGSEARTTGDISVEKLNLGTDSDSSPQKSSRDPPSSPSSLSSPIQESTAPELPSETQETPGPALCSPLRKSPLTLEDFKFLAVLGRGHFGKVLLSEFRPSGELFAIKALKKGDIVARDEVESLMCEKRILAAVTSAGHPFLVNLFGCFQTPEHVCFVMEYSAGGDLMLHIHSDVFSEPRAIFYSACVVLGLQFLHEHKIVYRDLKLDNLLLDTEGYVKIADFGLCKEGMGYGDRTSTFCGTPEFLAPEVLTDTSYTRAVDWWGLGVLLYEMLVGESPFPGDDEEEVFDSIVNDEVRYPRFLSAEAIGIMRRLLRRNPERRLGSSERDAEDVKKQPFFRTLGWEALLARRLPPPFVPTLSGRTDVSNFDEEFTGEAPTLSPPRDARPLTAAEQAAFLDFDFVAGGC
Chain of Interleukin-1 receptor-associated kinase 1 (P51617 whole entry): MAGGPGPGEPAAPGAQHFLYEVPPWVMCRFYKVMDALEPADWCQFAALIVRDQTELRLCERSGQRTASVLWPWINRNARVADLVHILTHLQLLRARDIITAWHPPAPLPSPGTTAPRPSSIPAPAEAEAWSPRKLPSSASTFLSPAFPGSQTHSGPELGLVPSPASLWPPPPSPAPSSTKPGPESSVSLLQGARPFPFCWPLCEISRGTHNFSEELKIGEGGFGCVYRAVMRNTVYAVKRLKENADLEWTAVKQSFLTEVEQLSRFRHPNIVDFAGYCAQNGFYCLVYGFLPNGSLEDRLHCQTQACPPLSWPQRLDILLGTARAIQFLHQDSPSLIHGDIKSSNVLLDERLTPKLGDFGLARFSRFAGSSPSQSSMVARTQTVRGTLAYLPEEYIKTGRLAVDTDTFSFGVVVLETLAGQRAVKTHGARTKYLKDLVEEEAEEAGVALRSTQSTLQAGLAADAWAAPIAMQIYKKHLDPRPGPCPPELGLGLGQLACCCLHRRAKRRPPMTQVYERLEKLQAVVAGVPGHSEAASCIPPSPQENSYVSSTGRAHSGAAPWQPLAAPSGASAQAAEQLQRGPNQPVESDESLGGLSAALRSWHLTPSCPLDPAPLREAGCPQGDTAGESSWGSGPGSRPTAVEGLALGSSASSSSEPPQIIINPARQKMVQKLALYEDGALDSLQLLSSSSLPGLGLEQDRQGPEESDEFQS
Chain of Ribosomal protein S6 kinase alpha-1 (Q15418 whole entry): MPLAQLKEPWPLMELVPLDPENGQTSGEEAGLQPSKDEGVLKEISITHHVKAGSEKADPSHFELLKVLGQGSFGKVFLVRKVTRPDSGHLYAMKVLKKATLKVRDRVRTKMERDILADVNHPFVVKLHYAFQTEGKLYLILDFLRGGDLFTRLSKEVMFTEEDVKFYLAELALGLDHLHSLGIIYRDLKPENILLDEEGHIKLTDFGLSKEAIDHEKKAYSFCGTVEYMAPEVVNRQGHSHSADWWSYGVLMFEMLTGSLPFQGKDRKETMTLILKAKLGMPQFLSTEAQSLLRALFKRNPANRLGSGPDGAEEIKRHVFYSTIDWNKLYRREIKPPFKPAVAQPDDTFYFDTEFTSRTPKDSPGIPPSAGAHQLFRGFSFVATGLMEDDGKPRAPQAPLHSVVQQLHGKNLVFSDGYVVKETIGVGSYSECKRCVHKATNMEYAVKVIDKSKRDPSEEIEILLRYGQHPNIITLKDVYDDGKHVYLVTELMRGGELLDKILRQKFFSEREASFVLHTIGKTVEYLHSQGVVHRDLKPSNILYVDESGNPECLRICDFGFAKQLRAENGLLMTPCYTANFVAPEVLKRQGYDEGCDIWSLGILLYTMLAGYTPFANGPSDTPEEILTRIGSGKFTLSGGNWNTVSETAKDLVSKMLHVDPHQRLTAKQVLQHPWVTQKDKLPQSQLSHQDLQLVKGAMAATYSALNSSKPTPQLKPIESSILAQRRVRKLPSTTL

Cc1cc([C@@H](C)Nc2ccccc2C(=O)O)c2nc(N3CCOCC3)cc(=O)n2c1 [AZD-6482]
inactive: [1] > 30 µM | [2] > 30 µM | [3] > 30 µM | [4] > 30 µM | [5] > 30 µM | [6] > 30 µM | [7] > 30 µM | [8] > 30 µM | [9] > 30 µM
